Results as given in ChEMBL document CHEMBL1201862, “PubChem BioAssay data set” (2004).
Activity calls are given as the source filed them.

How the values were obtained:
[1] = molecular target: T1, Heat shock factor protein 1 (Mus musculus, UniProt P38532); test: inhibition of MG132-induced HSE-luciferase signal, confirmation, cell-based, NIH3T3, luminescence, dose retest (AID 2382); format: functional;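 further: NIH3T3 fibroblasts with HSF1-driven luciferase reporter stressed by proteasome inhibitor MG132; luminescence from HSF1-driven luciferase expression after 8 hours of MG132 stress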
T1 sequence (P38532 whole entry): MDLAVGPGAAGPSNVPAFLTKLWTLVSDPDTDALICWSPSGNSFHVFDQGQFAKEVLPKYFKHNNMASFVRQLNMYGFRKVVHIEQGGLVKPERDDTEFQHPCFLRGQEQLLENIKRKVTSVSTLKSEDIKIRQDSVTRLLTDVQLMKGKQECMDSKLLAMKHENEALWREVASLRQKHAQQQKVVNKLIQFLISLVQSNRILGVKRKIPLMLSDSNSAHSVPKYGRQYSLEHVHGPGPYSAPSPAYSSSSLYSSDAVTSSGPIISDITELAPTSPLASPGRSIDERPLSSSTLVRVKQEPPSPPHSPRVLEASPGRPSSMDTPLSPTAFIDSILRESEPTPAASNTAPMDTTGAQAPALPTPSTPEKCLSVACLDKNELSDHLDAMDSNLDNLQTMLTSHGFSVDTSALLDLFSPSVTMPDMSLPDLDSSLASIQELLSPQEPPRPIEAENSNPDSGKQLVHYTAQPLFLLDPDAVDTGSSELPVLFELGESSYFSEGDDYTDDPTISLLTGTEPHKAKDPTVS

[2] = HEK293 cell cytotoxicity, dose response, cytotoxicity control, plate reader, cherry-picked samples (AID 743446); format: functional, cell-based
[3] = HepG2 cell cytotoxicity, dose response, cytotoxicity control, plate reader, cherry-pick, antagonist series (AID 743416); format: functional, cell-based
[4] = MC4R antagonists, dose response, counter-screen for LGR2 antagonist project, cell-based, plate reader, cherry pick (AID 743444); format: functional;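 further: transfected HEK 293 cells stimulated with alpha-MSH peptide; potency of inhibitors of the alpha-MSH evoked signal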
[5] = LGR2 antagonists, dose response, cell-based, HEK293, CRE-luciferase reporter, cherry pick, set 2 (AID 743343); format: functional;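 further: transfected cells were stimulated with diluted bursicon conditioned medium after compound addition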
[6] = A549 cell cytotoxicity, dose response, cytotoxicity control, plate reader, cherry-pick, antagonist series (AID 743412); format: functional, cell-based
[7] = cytotoxicity in HEK-293T cells, dose response, cytotoxicity control for TCR NF-kB inhibitor project, luminescence, T-cell screen hits (AID 489026); format: functional, cell-based;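 further: cells exposed to compound about 14 hours before the viability readout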
[8] = molecular target: E3 ubiquitin-protein ligase Mdm2/Protein Mdm4 (Homo sapiens, UniProt O15151+Q00987); test: Mdm2-MdmX interaction inhibitors, dose response, luminescence detection (AID 504593); format: functional
[9] = enhancers of respiration in Yfh1-depleted yeast, dose response, Friedreich's ataxia, plus single-dose screen (AID 1465); format: functional;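 further: yeast depleted of Yfh1p frataxin homolog grown on glycerol needing respiration; WST-1 tetrazolium dye reduction as measure of cellular dehydrogenase metabolic activity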
[10] = molecular target: T2, Insulin-degrading enzyme (Homo sapiens, UniProt P14735); test: Dose Response: Fluorescence polarization-based cell-based high throughput dose response assay for inhibitors of insulin-degrading enzyme (IDE). [Related pubchem assays: 434962 (Primary screen (IDE inhibitors in singlicate)), 449730 (Counterscreen (Cytotoxicity in triplicate)), 435028 (Confirmation (IDE inhibitors in triplicate)), 434984 (Summary …; format: functional
T2 sequence (P14735 whole entry): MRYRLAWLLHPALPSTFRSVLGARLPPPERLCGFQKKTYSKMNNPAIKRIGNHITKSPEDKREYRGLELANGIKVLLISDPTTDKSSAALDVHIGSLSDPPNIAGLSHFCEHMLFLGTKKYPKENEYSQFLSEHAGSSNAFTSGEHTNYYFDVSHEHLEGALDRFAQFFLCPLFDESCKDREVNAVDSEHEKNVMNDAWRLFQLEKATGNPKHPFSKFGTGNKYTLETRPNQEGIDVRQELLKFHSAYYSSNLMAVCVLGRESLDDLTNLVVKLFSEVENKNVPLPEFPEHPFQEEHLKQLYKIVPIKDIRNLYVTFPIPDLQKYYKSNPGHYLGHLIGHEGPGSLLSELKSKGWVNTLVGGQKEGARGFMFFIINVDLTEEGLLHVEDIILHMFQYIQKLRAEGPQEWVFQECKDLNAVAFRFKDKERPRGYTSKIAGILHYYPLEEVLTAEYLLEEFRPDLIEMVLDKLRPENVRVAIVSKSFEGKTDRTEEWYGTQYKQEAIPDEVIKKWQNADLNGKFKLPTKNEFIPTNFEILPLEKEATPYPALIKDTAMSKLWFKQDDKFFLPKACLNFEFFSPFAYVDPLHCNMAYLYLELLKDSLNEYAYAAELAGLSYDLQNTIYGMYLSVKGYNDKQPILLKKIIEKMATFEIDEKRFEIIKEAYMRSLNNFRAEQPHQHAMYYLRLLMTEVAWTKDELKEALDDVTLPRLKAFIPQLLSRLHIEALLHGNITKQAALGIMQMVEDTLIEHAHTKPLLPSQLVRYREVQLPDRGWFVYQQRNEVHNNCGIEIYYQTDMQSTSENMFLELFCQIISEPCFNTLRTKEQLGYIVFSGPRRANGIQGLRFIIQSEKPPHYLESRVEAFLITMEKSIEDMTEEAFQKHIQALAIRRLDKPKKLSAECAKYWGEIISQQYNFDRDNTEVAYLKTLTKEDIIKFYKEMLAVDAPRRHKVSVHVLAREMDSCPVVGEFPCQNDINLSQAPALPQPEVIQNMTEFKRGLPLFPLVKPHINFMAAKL

[11] = molecular target: Troponin, cardiac muscle (Homo sapiens, UniProt P19429+P45379+P63316); test: Fluorescence-based biochemical high throughput dose response assay for activators of the calcium sensitivity of cardiac Regulated Thin Filaments (RTF). [Related pubchem assays (depositor defined):AID493008, AID493018, AID504382, AID504383]; format: protein-complex assay
[12] = Counterscreen for IDE inhibitors: Luminescence-based cell-based high throughput dose response assay to identify compounds that are cytotoxic to HEK cells. [Related pubchem assays: 434962 (Primary screen (IDE inhibitors in singlicate)), 449730 (Counterscreen (Cytotoxicity in triplicate)), 435028 (Confirmation (IDE inhibitors in triplicate)) …; format: functional; conditions: HEK293
[13] = molecular target: Delta-type opioid receptor (Homo sapiens, UniProt P41143); test: SAR Analysis of Antagonists of the DOR Receptor using an Image-Based Assay - Set 3. [Related pubchem assays (depositor defined):AID1777, AID1785]; format: functional;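 further: U2OS cells expressing DOR1 and beta-arrestin GFP stimulated with 100 nM SNC80; imaging of GFP-tagged beta-arrestin moving into spots after receptor activation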
[14] = molecular target: Mu-type opioid receptor (Homo sapiens, UniProt P35372); test: SAR Analysis of Antagonists of the MOR Receptor using an Image-Based Assay - Set 3. [Related pubchem assays (depositor defined):AID1777, AID1785, AID1786, AID1966, AID2133, AID2136, AID2284, AID2285, AID2420]; format: functional
[15] = inhibitors of clade B AD8 Env fusion, dose response, cell-based, cherry-pick (AID 652062); format: functional;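 further: luciferase signal from cell-cell fusion driven by HIV-1 clade B AD8 Env; potency is for inhibitors of fusion seen as a drop in luminescence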
[16] = Luminescence Cell-Based Dose Retest to Confirm Inhibitors of Cancer Stem Cells. [Related pubchem assays (depositor defined):AID2717, AID2721]; format: functional; conditions: Homo sapiens
[17] = inhibitors of intracellular T. cruzi replication, confirmation, NIH3T3 host cells, beta-gal luminescence (AID 2044); format: functional, cell-based;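 further: intracellular parasites grown in NIH/3T3 mouse fibroblasts as host cells; luminescent beta-galactosidase reporter signal from transgenic T. cruzi replicating inside host cells; inhibitors lower the luminescence signal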
[18] = inhibitors of HIV Env-driven cell fusion, dose response, cherry-pick (AID 652057); format: functional, cell-based
[19] = molecular target: Neurotensin receptor type 1 (Homo sapiens, UniProt P30989); format: functional;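 further: Image-based confirmatory dose-response assay measuring agonist activity at NTR1; NTR1-expressing U2OS osteosarcoma cells imaged for beta-arrestin GFP spot formation; agonist potency where compounds increase beta-arrestin recruitment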
[20] = cells; format: functional
[21] = molecular target: G-protein coupled receptor 55 (Homo sapiens, UniProt Q9Y2T6); test: GPR55 antagonists blocking LPI-driven arrestin recruitment, primary screen, imaging, U2OS, beta-arrestin-GFP, LPI agonist (AID 2013); format: functional;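 further: antagonist potency measured as reduced agonist-driven arrestin aggregation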
[22] = test system: INS1; test: beta cell apoptosis inhibitors, cytokine rescue, dose response, luminescence, retest (AID 449756); format: functional, cell-based; conditions: Rattus norvegicus;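 further: cell death triggered by IL-1 beta plus TNF-alpha plus IFN-gamma mixture; protective hits raise ATP signal compared with cytokine alone wells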
[23] = HepG2 cell cytotoxicity, dose response, cytotoxicity control for non-replicating M. tuberculosis project (AID 489018); format: functional; conditions: Mycobacterium tuberculosis
[24] = CEM21 lymphoblast cell cytotoxicity, dose response, cytotoxicity control for viral fusion inhibitor project, CellTiter-Glo luminescence, cherry-picked (AID 652042); format: functional, cell-based;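 further: potency for signal decrease meaning cytotoxicity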
[25] = Vero E6 cell cytotoxicity, dose response, cytotoxicity control for non-replicating M. tuberculosis project, secondary assay (AID 492998); format: functional, VeroE6; conditions: Vero C1008
[26] = THP-1 cell cytotoxicity, dose response, cytotoxicity control for non-replicating M. tuberculosis project (AID 489025); format: functional
[27] = cytotoxicity toward NIH3T3 fibroblasts, dose response, counter-screen, cell-based, ATP luminescence, mouse fibroblasts (AID 2010); format: functional;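 further: cells exposed to compound for about 90 hours before reading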
[28] = off-target signal loss in HeLa-CEM21 co-culture – HeLa F-luc CTL cells, cherry-picked, counter-screen for HIV-1 Env fusion inhibitor project, dose response (AID 652040); format: functional, cell-based;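 further: potency for signal decrease marking cytotoxic or nonspecific inhibition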
[29] = ZM109 Env clade C HIV-1 fusion inhibitors, dose response, HeLa effector, CEM target cells, luciferase, cherry-pick (AID 652058); format: functional, cell-based
[30] = molecular target: DNA dC->dU-editing enzyme APOBEC-3G (Homo sapiens, UniProt Q9HC16); test: Dose Response confirmation of small molecule APOBEC3G DNA Deaminase Inhibitors via a fluorescence-based single-stranded DNA deaminase assay. [Related pubchem assays (depositor defined):AID493012, AID493028]; format: functional
[31] = molecular target: DNA dC->dU-editing enzyme APOBEC-3A (Homo sapiens, UniProt P31941); test: APOBEC3A DNA deaminase inhibitors, dose response, biochemical (AID 504722); format: functional
Sequence of DNA dC->dU-editing enzyme APOBEC-3A (P31941 whole entry): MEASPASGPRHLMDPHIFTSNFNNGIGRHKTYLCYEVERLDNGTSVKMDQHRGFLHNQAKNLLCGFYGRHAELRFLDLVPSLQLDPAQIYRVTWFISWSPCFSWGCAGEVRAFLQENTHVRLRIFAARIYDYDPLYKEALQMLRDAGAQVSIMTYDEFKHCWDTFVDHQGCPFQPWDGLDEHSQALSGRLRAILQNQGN

Sequence of DNA dC->dU-editing enzyme APOBEC-3G (Q9HC16 whole entry): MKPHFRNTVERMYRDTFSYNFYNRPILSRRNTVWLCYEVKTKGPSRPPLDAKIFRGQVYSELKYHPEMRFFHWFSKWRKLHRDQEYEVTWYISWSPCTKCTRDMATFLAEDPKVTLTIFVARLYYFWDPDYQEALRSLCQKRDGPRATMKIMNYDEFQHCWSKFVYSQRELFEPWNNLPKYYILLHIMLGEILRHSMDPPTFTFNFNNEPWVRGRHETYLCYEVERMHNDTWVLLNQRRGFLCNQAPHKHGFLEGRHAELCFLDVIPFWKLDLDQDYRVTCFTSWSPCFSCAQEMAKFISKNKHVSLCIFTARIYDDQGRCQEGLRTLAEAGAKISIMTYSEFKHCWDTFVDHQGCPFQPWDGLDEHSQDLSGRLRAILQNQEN
Sequence of G-protein coupled receptor 55 (Q9Y2T6 whole entry): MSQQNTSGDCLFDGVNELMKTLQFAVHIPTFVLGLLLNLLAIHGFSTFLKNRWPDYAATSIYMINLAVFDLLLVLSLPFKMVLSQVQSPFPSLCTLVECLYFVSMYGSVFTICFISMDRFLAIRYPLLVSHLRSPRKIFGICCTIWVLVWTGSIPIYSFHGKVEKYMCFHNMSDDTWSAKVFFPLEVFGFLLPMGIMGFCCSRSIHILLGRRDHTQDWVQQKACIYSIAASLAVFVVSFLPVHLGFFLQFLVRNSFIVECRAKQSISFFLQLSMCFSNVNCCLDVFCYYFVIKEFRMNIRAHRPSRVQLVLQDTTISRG
Sequence of Neurotensin receptor type 1 (P30989 whole entry): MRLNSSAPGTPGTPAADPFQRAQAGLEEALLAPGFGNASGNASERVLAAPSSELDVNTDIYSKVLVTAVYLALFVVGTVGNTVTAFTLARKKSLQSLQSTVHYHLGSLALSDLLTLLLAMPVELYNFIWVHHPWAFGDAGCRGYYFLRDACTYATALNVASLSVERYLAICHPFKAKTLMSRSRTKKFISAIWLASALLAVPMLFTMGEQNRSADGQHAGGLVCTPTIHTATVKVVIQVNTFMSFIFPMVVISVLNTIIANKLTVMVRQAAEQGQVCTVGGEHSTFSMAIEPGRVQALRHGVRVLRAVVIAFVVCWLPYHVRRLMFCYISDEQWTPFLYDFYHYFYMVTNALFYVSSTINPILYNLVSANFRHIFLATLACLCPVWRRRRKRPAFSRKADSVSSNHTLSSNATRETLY
Sequence of Delta-type opioid receptor (P41143 whole entry): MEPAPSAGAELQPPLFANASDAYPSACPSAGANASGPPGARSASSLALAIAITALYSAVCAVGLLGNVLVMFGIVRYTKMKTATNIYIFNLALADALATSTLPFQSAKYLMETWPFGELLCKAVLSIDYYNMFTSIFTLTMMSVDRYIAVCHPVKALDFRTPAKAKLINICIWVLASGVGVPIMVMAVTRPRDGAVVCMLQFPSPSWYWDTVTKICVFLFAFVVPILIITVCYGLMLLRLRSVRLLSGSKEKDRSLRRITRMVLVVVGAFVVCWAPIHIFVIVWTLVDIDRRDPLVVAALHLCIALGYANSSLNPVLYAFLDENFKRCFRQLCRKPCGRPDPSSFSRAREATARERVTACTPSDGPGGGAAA
Sequence of Mu-type opioid receptor (P35372 whole entry, the tested form may be a part): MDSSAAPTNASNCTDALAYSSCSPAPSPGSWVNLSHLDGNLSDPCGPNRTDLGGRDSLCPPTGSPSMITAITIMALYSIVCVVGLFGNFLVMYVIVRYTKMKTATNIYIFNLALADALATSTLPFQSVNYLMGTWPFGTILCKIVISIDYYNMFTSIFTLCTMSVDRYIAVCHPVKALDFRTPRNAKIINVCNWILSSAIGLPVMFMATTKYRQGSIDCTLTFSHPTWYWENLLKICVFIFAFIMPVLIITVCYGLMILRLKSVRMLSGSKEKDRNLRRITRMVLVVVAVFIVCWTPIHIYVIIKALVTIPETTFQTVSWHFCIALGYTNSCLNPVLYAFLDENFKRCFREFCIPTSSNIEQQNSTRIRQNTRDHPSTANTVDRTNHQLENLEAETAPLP
Sequence of E3 ubiquitin-protein ligase Mdm2/Protein Mdm4 (Q00987 whole entry): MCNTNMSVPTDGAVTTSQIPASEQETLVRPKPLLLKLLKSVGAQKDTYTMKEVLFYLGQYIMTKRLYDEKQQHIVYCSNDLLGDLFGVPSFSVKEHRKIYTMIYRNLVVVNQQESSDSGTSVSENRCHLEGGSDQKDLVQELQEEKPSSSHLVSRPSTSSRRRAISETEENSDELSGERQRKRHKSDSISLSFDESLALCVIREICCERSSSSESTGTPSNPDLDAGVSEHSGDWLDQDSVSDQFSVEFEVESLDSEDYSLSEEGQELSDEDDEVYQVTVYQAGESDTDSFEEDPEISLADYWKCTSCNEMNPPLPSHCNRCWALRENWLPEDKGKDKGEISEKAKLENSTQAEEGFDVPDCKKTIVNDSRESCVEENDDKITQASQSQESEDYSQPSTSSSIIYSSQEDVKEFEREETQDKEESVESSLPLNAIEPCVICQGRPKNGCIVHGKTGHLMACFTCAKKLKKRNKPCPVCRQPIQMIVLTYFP
Sequence of E3 ubiquitin-protein ligase Mdm2/Protein Mdm4 (O15151 whole entry): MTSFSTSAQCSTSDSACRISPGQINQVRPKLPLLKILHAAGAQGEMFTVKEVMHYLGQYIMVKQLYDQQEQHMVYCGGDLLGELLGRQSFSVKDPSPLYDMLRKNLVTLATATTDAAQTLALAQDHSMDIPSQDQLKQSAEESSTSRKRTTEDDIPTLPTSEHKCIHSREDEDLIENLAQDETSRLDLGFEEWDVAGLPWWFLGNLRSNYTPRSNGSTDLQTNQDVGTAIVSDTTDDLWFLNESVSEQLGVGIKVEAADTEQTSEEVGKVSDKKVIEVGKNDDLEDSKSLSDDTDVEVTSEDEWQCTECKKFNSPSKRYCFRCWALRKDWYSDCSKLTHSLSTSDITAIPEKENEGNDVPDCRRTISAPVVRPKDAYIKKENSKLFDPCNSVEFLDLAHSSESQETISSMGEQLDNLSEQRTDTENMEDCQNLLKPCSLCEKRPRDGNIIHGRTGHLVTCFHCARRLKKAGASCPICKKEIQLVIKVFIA

## O=c1oc2ccccc2cc1-c1cn(-c2ccccc2)c(S)n1
[1]
  EC50: < 160 nM (active)
[2]
  AC50: 19.4 µM (active)
[3]
  AC50: 19.4 µM (active)
[4]
  AC50: 259 nM (active)
[5]
  AC50: 316 nM (active)
[6]
  AC50: 8.78 µM (active)
[7]
  IC50: > 80 µM (inactive)
[8]
  IC50: 3.74 nM (active)

## N#C/C(=C\c1ccc(N2CCOCC2)o1)C(=O)NC1CCCCC1
[9]
  EC50: > 100 µM (active)
[10]
  IC50: 8.05 µM (active)
[11]
  EC50: 6.89 µM (active)
[12]
  IC50: 31.8 µM (not active)

## Cc1ccc(S(=O)(=O)NCc2ccc(C(=O)NCCN(Cc3ccc(Br)cc3)C(C)C)cc2)cc1
[13]
  IC50: > 32 µM (inactive)
[14]
  IC50: > 32 µM (inactive)

## CC(NCC(O)COCCC12CC3CC(CC(C3)C1)C2)c1ccccc1 (stereo unspecified)
[15]
  AC50: 16.8 µM (active)
[16]
  AC50: 6.14 µM (active)
[17]
  EC50: 157 nM (active)
[18]
  AC50: 3.45 µM (active)
[19]
  EC50: 19.9 µM (active)
[20]
  IC50: 14.6 µM (active)
[21]
  IC50: 3.25 µM (active)
[22]
  AC50: 7.3 µM (active)
[23]
  CC50: 12.7 µM (active)
[24]
  AC50: 13.3 µM (active)
[25]
  CC50: 13.7 µM (active)
[26]
  CC50: 12.5 µM (active)
[27]
  EC50: > 60 µM (not active)
[28]
  AC50: 6.93 µM (active)
[29]
  AC50: 11.2 µM (active)

## Cc1cc(-c2nnc(S)n2/N=C/c2ccc(C)s2)[nH]n1
[30]
  IC50: 2.28 µM (active)
[31]
  IC50: > 100 µM (inactive)
